This passage reports IC50 results from US9403810B2, “Carboxamide derivatives” (Novartis AG, priority 2014, dated 2016).

Usually IC50 stands for the point on the concentration scale where inhibition reaches its midpoint. Lower therefore signals greater potency in that assay.

Smurf-1, sequence (Q9HCE7 whole entry): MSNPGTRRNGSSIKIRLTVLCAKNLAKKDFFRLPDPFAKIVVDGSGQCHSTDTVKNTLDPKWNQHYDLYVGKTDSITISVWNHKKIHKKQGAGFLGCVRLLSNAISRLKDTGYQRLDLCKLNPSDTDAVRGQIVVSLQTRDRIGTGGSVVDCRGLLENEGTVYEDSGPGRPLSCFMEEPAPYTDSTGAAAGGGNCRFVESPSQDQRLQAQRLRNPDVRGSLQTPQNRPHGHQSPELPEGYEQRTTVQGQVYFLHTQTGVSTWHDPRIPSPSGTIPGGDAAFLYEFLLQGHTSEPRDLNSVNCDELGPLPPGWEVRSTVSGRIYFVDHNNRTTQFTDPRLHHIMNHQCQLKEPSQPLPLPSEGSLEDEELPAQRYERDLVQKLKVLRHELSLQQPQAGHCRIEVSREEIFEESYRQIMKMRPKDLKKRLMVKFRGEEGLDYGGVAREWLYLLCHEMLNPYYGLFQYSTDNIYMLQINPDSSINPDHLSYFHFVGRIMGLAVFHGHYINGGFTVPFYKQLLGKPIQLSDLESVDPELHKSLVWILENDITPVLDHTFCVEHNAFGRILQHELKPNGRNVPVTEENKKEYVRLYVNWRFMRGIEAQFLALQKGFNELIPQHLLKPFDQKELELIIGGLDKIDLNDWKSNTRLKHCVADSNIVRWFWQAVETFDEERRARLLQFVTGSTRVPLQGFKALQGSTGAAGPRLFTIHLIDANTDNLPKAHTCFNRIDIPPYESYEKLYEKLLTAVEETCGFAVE

The test has as its target Smurf-1 (Homo sapiens (Human), UniProt Q9HCE7). In words: HECT E3 ligase autoubiquitinylation TR-FRET assay (Smurf-1). Conditions: 8-point dose-response curve, 3 nM to 10 uM; 45 min incubation. Format: biochemical. From the text:
To determine the HECT E3 ligase selectivity of the compounds, a panel of biochemical HECT E3 ligase autoubiquitinylation assays was employed (Smurf-1, Smurf-2, WWP1, WWP2, ITCH, Nedd4, Nedd4L and E6AP). The conjugation of ubiquitin to a protein substrate is a multistep process. In an initial ATP-requiring step, a thioester bond is formed between the carboxyl terminus of ubiquitin and an internal cystein residue of the ubiquitin-activating enzyme (E1). Activated ubiquitin is then transferred to a specific cystein residue of an ubiquitin-conjugating enzyme (E2). E2s donate ubiquitin to a HECT E3 ligase (E3) from which it is transferred to the substrate protein. HECT E3 ligases can auto-ubiquitinylate. This event is detected in the TR-FRET (Time-Resolved Fluorescence Resonance Energy Transfer) assay used in this panel. The reaction mix contains E1, E2, tagged-E3, biotin-conjugated ubiquitin, the compound and ATP in a suitable buffer and is incubated for 45 minutes to allow auto-ubiquitinylation of the E3 ligase. To measure the extent of ubiquitinylated E3 ligase by TR-FRET, the donor fluorophore Europium cryptate (Eu3+ cryptate), conjugated to streptavidin which subsequently binds to biotinylated ubiquitin, and the modified allophycocyanin XL665 (HTRF® primary acceptor fluorophore) coupled to a tag-specific antibody (HA, His or GST), which recognizes the respective E3 ligase fusion proteins, are added after the reaction is complete. When these two fluorophores are brought together by a bimolecular interaction (in this case ubiquitinylation of the E3 ligase), a portion of the energy captured by the Cryptate during excitation is released through fluorescence emission at 620 nm, while the remaining energy is transferred to XL665. This energy is then released by XL665 as specific fluorescence at 665 nm. Light at 665 nm is emitted only through FRET with Europium.
Test and reference compounds are prepared at 180× [final] in 90% DMSO, and diluted 1:3 in 90% DMSO.
For the biochemical assay panel, 50 nl of the test compounds, reference compounds and buffer/DMSO control are transferred to the respective wells of a 384-well white GREINER “SMALL VOLUME” PS plate. The assay panel is run at room temperature on a Biomek FX liquid handling workstation. To the assay plates containing 50 nl compound or control solutions in 90% DMSO, 4.5 ul of E3 ligase solution were added per well, followed by 4.5 ul of the pre-incubated E1/E2/Ub mix or the pre-diluted ubiquitin (LOW control). Plates are shaken vigorously after each addition. In this assay the compound concentrations range from 3 nM to 10 uM in an 8-point dose-response curve.
After an incubation time of 45 min in the dark, the plates are transferred into the Pherastar fluorescence reader to measure the TR-FRET signal.
Take `Cc1c(C(=O)Nc2c(C)n(C)n(C3CCCCC3)c2=O)noc1C1=CCCCCC1` [Example 1.6, 5-(Cyclohept-1-en-1-yl)-N-(2-cyclohexyl-1,5-dimethyl-3-oxo-2,3-dihydro-1H-pyrazol-4-yl)-4-methylisoxazole-3-carboxamide]: the IC50 came out at 0.008 µM.

`Cc1c(C(=O)Nc2c(C)n(C)n(C3CCCCC3)c2=O)noc1C1=CCC(C)(C)CC1` [Example 2.2, N-(2-Cyclohexyl-1,5-dimethyl-3-oxo-2,3-dihydro-1H-pyrazol-4-yl)-5-(4,4-dimethylcyclohex-1-en-1-yl)-4-methylisoxazole-3-carboxamide] had an IC50 of 0.0009 µM.

The compound `Cc1c(C(=O)Nc2c(C)n(C)n(C3CCCCC3)c2=O)noc1C1CCCCC1` [Example 10, 5-Cyclohexyl-N-(2-cyclohexyl-1,5-dimethyl-3-oxo-2,3-dihydro-1H-pyrazol-4-yl)-4-methylisoxazole-3-carboxamide] yielded an IC50 of 0.05 µM.

In turn, `Cc1c(C(=O)Nc2c(C)n(C)n(C3CCCCC3)c2=O)noc1C1CCC2(CC1)OCCO2` [Example 11, N-(2-Cyclohexyl-1,5-dimethyl-3-oxo-2,3-dihydro-1H-pyrazol-4-yl)-4-methyl-5-(1,4-dioxaspiro[4.5]decan-8-yl)isoxazole-3-carboxamide] returned an IC50 of 0.42 µM.

In the case of `Cc1c(C(=O)Nc2c(C)n(C)n(C3CCCCC3)c2=O)noc1C1CCC(C)(C)CC1` [Example 6, N-(2-Cyclohexyl-1,5-dimethyl-3-oxo-2,3-dihydro-1H-pyrazol-4-yl)-5-(4,4-dimethylcyclohexyl)-4-methylisoxazole-3-carboxamide], the IC50 is 0.0057 µM.

Compound `Cc1c(C(=O)Nc2c(C)n(C)n(C3CCCCC3)c2=O)noc1C1=CCC(C(F)(F)F)CC1` (stereo not shown) [Example 1.7, N-(2-Cyclohexyl-1,5-dimethyl-3-oxo-2,3-dihydro-1H-pyrazol-4-yl)-4-methyl-5-(4-(trifluoromethyl)cyclohex-1-en-1-yl)isoxazole-3-carboxamide] returned an IC50 of 0.033 µM.

`Cc1c(C(=O)Nc2c(C)n(C)n(C3CCCCC3)c2=O)noc1C1=CCC(OC(C)C)CC1` (stereo not shown) [Example 5, N-(2-Cyclohexyl-1,5-dimethyl-3-oxo-2,3-dihydro-1H-pyrazol-4-yl)-5-(4-isopropoxycyclohex-1-en-1-yl)-4-methylisoxazole-3-carboxamide]: the IC50 turned out to be 0.31 µM.

`Cc1c(C(=O)Nc2c(C)n(C)n(C3CCC3)c2=O)noc1[C@H]1CCC[C@@H](C(C)(C)C)O1` (single isomer, unassigned) [Example 15b, 5-((2R,6S)-6-(tert-butyl)tetrahydro-2H-pyran-2-yl)-N-(2-cyclobutyl-1,5-dimethyl-3-oxo-2,3-dihydro-1H-pyrazol-4-yl)-4-methylisoxazole-3-carboxamide or 5-((2S,6R)-6-(tert-Butyl)tetrahydro-2H-pyran-2-yl)-N-(2-cyclobutyl-1,5-dimethyl-3-oxo-2,3-dihydro-1H-pyrazol-4-yl)-4-methylisoxazole-3-carboxamide] came in with an IC50 of 0.63 µM.

Turning to `Cc1c(C(=O)Nc2c(C)n(C)n(C3CCC3)c2=O)noc1[C@@H]1CCC[C@H](C(C)(C)C)O1` (single isomer, unassigned) [Example 15a, 5-((2S,6R)-6-(tert-Butyl)tetrahydro-2H-pyran-2-yl)-N-(2-cyclobutyl-1,5-dimethyl-3-oxo-2,3-dihydro-1H-pyrazol-4-yl)-4-methylisoxazole-3-carboxamide or 5-((2R,6S)-6-(tert-Butyl)tetrahydro-2H-pyran-2-yl)-N-(2-cyclobutyl-1,5-dimethyl-3-oxo-2,3-dihydro-1H-pyrazol-4-yl)-4-methylisoxazole-3-carboxamide], the IC50 is 0.29 µM.

`CO[C@H]1C[C@@H](c2onc(C(=O)Nc3c(C)n(C)n(C4CCCCC4)c3=O)c2C)O[C@@H](C(C)(C)C)C1` (racemic) [Example 13, 5-((2S,4R,6R)-6-(tert-butyl)-4-methoxytetrahydro-2H-pyran-2-yl)-N-(2-cyclohexyl-1,5-dimethyl-3-oxo-2,3-dihydro-1H-pyrazol-4-yl)-4-methylisoxazole-3-carboxamide and 5-((2R,4S,6S)-6-(tert-butyl)-4-methoxytetrahydro-2H-pyran-2-yl)-N-(2-cyclohexyl-1,5-dimethyl-3-oxo-2,3-dihydro-1H-pyrazol-4-yl)-4-methylisoxazole-3-carboxamide] had an IC50 of 0.64 µM.

Regarding `CCC1CC=C(c2onc(C(=O)Nc3c(C)n(C)n(C4CCCCC4)c3=O)c2C)CC1` (stereo not shown) [Example 1.3, N-(2-Cyclohexyl-1,5-dimethyl-3-oxo-2,3-dihydro-1H-pyrazol-4-yl)-5-(4-ethylcyclohex-1-en-1-yl)-4-methylisoxazole-3-carboxamide], the midpoint of inhibition, the IC50, lay at 0.0018 µM. This IC50 is about 360-fold lower than that of the compound before.

The compound `Cc1c(C(=O)Nc2c(C)n(C)n(C3CCCCC3)c2=O)noc1C1=CCC2(CCCC2)CC1` [Example 2, N-(2-Cyclohexyl-1,5-dimethyl-3-oxo-2,3-dihydro-1H-pyrazol-4-yl)-4-methyl-5-(spiro[4.5]dec-7-en-8-yl)isoxazole-3-carboxamide] registered an IC50 of 0.0025 µM.

`CCC1CC(C)CC=C1c1onc(C(=O)Nc2c(C)n(C)n(C3CCCCC3)c2=O)c1C` (stereo not shown) [Example 1.1, N-(2-Cyclohexyl-1,5-dimethyl-3-oxo-2,3-dihydro-1H-pyrazol-4-yl)-5-(6-ethyl-4-methylcyclohex-1-en-1-yl)-4-methylisoxazole-3-carboxamide]: the IC50 came to 0.0021 µM.
